The source of these data is PubChem BioAssay (NCI).

The structures appear in SMILES notation.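 Cultured in 96-well plates, cells were exposed to test compound for 48 hours across five concentrations. TGI: total growth inhibition.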

Common to all, as to experiment: growth of human tumour cells (NCI), 48 h
In assay [1] the test system is T-47D breast.
The subject of assay [2] is NCI-H226 lung.
The subject of assay [3] is OVCAR-3 ovarian.
For assay [4], the system named is SNB-19 CNS.
Assay [5] concerns ACHN renal.
Assay [6] deals with SF-295 CNS.
For assay [7], the system named is KM12 colon.
For assay [8], the system named is SNB-75 CNS.
The test system of assay [9] is KM20L2 colon.
Assay [10] concerns DMS 273 small cell lung.

Turning to `O=C(CC(O)(C(F)(F)F)C(F)(F)F)C(CCCl)C(O)(C(F)(F)F)C(F)(F)F` (stereo not drawn), the TGI in assay [1] was 78 µM; in [2], more than 100 µM; in assay [3] it was 65.3 µM; in assay [4], more than 100 µM; in [5], more than 100 µM; in [6], more than 100 µM. Besides, the TGI in [7] is more than 100 µM; in assay [8], 96.4 µM.

Turning to `CC1=C(C(=O)OCCc2ccc([N+](=O)[O-])cc2)C(c2ccccc2[N+](=O)[O-])C(C(=O)OC(C)C)=C(C)N1` (stereo not drawn), the TGI in assay [1] is more than 100 µM; in assay [2], 65.3 µM; in assay [3], more than 100 µM; in [4], more than 100 µM; in assay [5], more than 100 µM; in assay [6] it was more than 100 µM. In addition, the TGI in assay [7] and in assay [8] was more than 100 µM in each case.

As for `C#CCNC(Cc1cnc[nH]1)C(=O)O` (stereo not drawn), the TGI in [1], in assay [2], in [3], in assay [4], in [5] and in [6] was more than 100 µM each time. Further, the TGI in [7] and in [8] was more than 100 µM in each case.

As to `CN1CCn2c(Br)ccc2C1=O`, the TGI in assay [2], in assay [3], in assay [4], in assay [5], in assay [6] and in assay [9] was more than 100 µM throughout. Further, the TGI in assay [10] and in assay [7] was more than 100 µM each time.

On to `OC1CCCC1C(O)(C(F)(F)F)C(F)(F)F` (stereo not drawn), for which the TGI in assay [1], in assay [2], in assay [3], in [4], in assay [5] and in assay [6] was more than 100 µM throughout. Besides, the TGI in [7] and in assay [8] was more than 100 µM throughout.

`S=C(N/N=C\C=N/NC(=S)N1CCCCCC1)N1CCCCCC1`: the TGI in [1] is 21.8 µM; in assay [2] it was more than 100 µM; in assay [3] it was more than 100 µM; in assay [4], more than 100 µM; in assay [5], more than 100 µM; in [6], more than 100 µM. For the same compound, the TGI in assay [7] and in assay [8] was more than 100 µM each time.

Take `Cc1c2c3cc(O)ccc3nc-2n(C)c2ccccc12`: the TGI came out at 17.1 µM in assay [1]; 8.54 µM in [2]; 6.07 µM in [3]; 15.1 µM in assay [4]; 10.3 µM in [5]; 13 µM in [6]. In addition, the TGI in [7] came to 5.28 µM; in assay [8] it was 5.83 µM.

As for `O=C(O)/C=C(/CC(=O)O)C(=O)O`, the TGI was determined as 48.1 µM in [1]; 45.6 µM in assay [2]; 34.5 µM in assay [3]; 62.3 µM in assay [4]; 33.3 µM in assay [5]; 37.8 µM in [6]. Also, the TGI in [7] came out at 61.2 µM; in assay [8] it was 33.1 µM.

With `O=C(C1=C(C(=O)c2ccccc2)SC2(S1)C(C(=O)c1ccccc1)=C(C(=O)c1ccccc1)Sc1c2ssc1=O)c1ccccc1`, the TGI was more than 100 µM in [1]; 55 µM in [2]; more than 100 µM in [3]; 66.5 µM in assay [4]; more than 100 µM in assay [5]; more than 100 µM in [6]. Further, the TGI was 92.7 µM in [7] and more than 100 µM in assay [8].

Consider `CN(C)CCOC(=O)COc1ccc(Cl)cc1`, for which the TGI in [1], in assay [2], in [3], in assay [4], in [5] and in [6] was more than 100 µM in each case. In addition, the TGI in [7] and in [8] was more than 100 µM each time.

As for `CC(C)CCC[C@@H](C)[C@H]1CC[C@H]2[C@@H]3CC=C4C[C@@H](OC(=O)c5cccc6c(=O)c7ccccc7[nH]c56)CC[C@]4(C)[C@H]3CC[C@]12C`, the TGI in [1], in assay [2], in assay [3], in assay [4], in assay [5] and in assay [6] was more than 75 µM in each case. In addition, the TGI in [7] and in assay [8] was more than 75 µM each time.

Regarding `O=C(N/N=C\c1cccc2ccccc12)Nc1ccc([N+](=O)[O-])cc1`, the TGI is more than 41.4 µM in assay [1]; more than 100 µM in assay [2]; 38.3 µM in assay [3]; more than 100 µM in [4]; more than 72.7 µM in [5]; more than 100 µM in assay [6]. Besides, the TGI in assay [7] and in assay [8] was more than 100 µM in each case.

Regarding `Cn1c(=O)c2c(-c3ccccc3)onc2n(C)c1=O`, the TGI in assay [1] is more than 100 µM; in assay [2] it was more than 100 µM; in [3] it was 53.1 µM; in assay [4], more than 100 µM; in assay [5] it was more than 100 µM; in assay [6], more than 100 µM. Further, the TGI in [7] and in [8] was more than 100 µM throughout.

As to `CCc1nnc(-n2c(C)nc3cc(Cl)ccc3c2=O)s1`, the TGI in [1] was more than 100 µM; in assay [2], more than 100 µM; in assay [3], 43 µM; in assay [4], more than 100 µM; in assay [5], more than 100 µM; in [6], more than 100 µM. Further, the TGI in assay [7] was more than 100 µM; in [8] it was 92.8 µM.

On to `CC(=O)N(CN1C(=O)CCC1C(=O)O)c1ccccc1` (stereo not drawn), for which the TGI in [1], in assay [2], in assay [3], in [4], in assay [5] and in assay [6] was more than 100 µM throughout. Moreover, the TGI in assay [7] and in [8] was more than 100 µM in each case.

On to `CCOC(=O)c1ccc(C(=O)C(C(C)=O)C(=O)OC(C)(C)C)n1C` (stereo not drawn), for which the TGI in assay [1], in assay [2], in [3], in assay [4], in assay [5] and in [6] was more than 100 µM each time. Besides, the TGI in [7] and in [8] was more than 100 µM each time.
